ChEMBL document CHEMBL1138021, “Isoxazole carboxylic acids as protein tyrosine phosphatase 1B (PTP1B) inhibitors” (Bioorg Med Chem Lett, 2004)

What follows are compounds tested against T1, Tyrosine-protein phosphatase non-receptor type 1 (Mus musculus, UniProt P35821) (assay: Binding affinity for mouse protein-tyrosine phosphatase 1B (PTP1B) expressed in COS 7 cells).
T1 sequence (P35821 whole entry): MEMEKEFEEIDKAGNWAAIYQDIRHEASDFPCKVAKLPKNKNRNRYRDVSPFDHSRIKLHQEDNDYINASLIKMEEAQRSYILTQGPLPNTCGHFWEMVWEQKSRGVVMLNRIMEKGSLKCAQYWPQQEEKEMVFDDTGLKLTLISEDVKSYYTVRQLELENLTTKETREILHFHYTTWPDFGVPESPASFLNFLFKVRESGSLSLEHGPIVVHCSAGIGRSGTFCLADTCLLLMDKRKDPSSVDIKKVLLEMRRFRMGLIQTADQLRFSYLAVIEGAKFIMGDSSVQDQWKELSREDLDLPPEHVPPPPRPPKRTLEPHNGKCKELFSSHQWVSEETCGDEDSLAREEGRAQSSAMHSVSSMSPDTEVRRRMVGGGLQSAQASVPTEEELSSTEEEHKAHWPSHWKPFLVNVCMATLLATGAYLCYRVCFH
Type: cell-based

| Structure (SMILES) | Ki [µM] |
| --- | --- |
| COC(=O)c1c(O)cccc1OCC(=O)Nc1cccc(-c2cc(C(=O)O)no2)c1 | 216 |
| COC(=O)c1c(O)cccc1OCC(O)Cc1cccc(-c2cc(C(=O)O)no2)c1 (stereo not drawn) | 122 |
| COC(=O)c1c(O)cccc1OCCNc1cccc(-c2cc(C(=O)O)no2)c1 | 60.3 |

Now those with a lower Ki, led by results:

| Ki [µM] | Structure (SMILES) |
| --- | --- |
| 23 | COC(=O)c1c(O)cccc1OCCCc1cccc(-c2cc(C(=O)O)no2)c1 |
| 11.5 | COC(=O)c1c(O)cccc1OC/C=C/c1ccc2c(c1)-c1onc(C(=O)O)c1CC2 |
| 2.1 | COC(=O)c1c(O)cccc1OC/C=C/c1cccc(-c2onc(C(=O)O)c2N)c1 |
| 0.92 | COC(=O)c1c(O)cccc1OC/C=C/c1cccc(-c2onc(C(=O)O)c2CO)c1 |

The compounds below were run against T2, Tyrosine-protein phosphatase non-receptor type 2 (Homo sapiens, UniProt P17706) (assay: Binding affinity for T-cell Protein tyrosine phosphatase (TCPTP)).
T2 sequence (P17706 whole entry): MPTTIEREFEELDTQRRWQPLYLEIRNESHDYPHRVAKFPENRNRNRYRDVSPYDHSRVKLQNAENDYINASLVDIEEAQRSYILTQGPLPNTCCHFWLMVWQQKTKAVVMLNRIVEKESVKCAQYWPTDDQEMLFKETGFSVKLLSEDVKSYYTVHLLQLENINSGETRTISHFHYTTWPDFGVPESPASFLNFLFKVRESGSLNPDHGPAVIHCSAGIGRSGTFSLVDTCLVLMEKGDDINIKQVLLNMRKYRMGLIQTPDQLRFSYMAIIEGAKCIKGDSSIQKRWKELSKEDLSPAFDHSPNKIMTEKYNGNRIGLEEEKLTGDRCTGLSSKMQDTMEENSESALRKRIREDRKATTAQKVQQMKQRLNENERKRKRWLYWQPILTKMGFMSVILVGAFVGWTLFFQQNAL

| Ki [µM] | Structure (SMILES) |
| --- | --- |
| 19.2 | COC(=O)c1c(O)cccc1OC/C=C/c1cccc(-c2onc(C(=O)O)c2CO)c1 |
